Test results taken from PubChem BioAssay (NCI).
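Briefly, cells in 96-well plates were exposed to five compound concentrations for 48 h, and endpoints were estimated by linear interpolation. TGI: total growth inhibition.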

What follows are compounds tested on SW-620 colon (assay: NCI-60 cell line screen, 48 h).

Row | Compound | TGI [µM]
1 | CC(C)[Si](OCC1CC(C#N)OC(C)(C)O1)(C(C)C)C(C)C (stereo not given) | 36
2 | CC(=O)Nc1ccc(-c2nnc(SCC(=O)Nc3ccc(Cl)cc3)o2)cc1 | 29.8
3 | Cc1ccccc1NC(=O)Cc1csc(N=Nc2c(O)[nH]c3ccccc23)n1 | > 1
4 | FC(F)(F)c1ccc2nc(Sc3ccc4ccccc4c3)cnc2c1 | > 100
5 | COc1ccc2c([nH]c3c(O)c(-c4c(C)cc5c([nH]c6c(CC=C(C)C)c(OC)ccc65)c4O)c(C)cc32)c1CC=C(C)C | > 100
6 | COc1ccc(-n2cnc3c(NC(Cc4ccccc4)C(=O)O)ncnc32)cc1 (stereo not given) | > 100
7 | CC(=O)OCC1OC(n2c(-c3ccccc3)c(N=Nc3ccc(C)cc3)c(C)c(C#N)c2=S)C(OC(C)=O)C(OC(C)=O)C1OC(C)=O (stereo not given) | 11.4
8 | CN1CCC2(CC1)C(=NC1CCCCC1)NC(=O)N2c1ccccc1 | > 100
9 | CC(C)=NOC(=O)Nc1cccc2c1OCO2 | > 100
10 | Cc1ccc(/C=C2/N=C(N/N=C\c3ccccc3)NC2=O)cc1 | > 100
11 | O=C(Nc1ccc(Cl)cc1)c1cc(S(=O)(=O)Nc2n[nH]c(=O)n2-c2ccccc2)c(S)cc1Cl | > 100
12 | Cc1csc(-n2c(C)nc3cc(Cl)ccc3c2=O)n1 | > 100

These compounds were tested on T-47D breast (assay: NCI-60 cell line screen, 48 h).

Row | Compound | TGI [µM]
13 | O=C1CC(c2ccccc2)S(=O)c2ccccc2N1 (stereo not given) | > 100
14 | O=C(O)c1ccc(N/C(=C(/C(Cl)=C(Cl)Cl)[N+](=O)[O-])n2nnc3ccccc32)cc1 | > 100
15 | CCn1c2ccccc2c2cc(Nc3cc(C)[nH]c(=O)n3)ccc21 | > 100
16 | C(#Cc1ccccc1)SC1=C(c2ccccc2)S/C(=C(\SC#Cc2ccccc2)c2ccccc2)S1 | > 100
17 | COC(=O)c1cc(/C=C\c2cc(OC)ccc2OC)ccc1OC | 52.1
18 | CCOC(=O)C(C(=O)COC(C)(C)C)[C@@H]1C=C[C@H](OC(C)=O)C1 (stereo not given in full) | > 100
19 | O=C(Cc1ccccc1)NN1C(=O)/C(=C\c2ccccc2O)SC1=Nc1ccccc1 | > 100
20 | COc1ccc2c(c1)CCC/C2=N\NS(=O)(=O)c1c(C)cc(C)cc1C | 53.9
21 | CN(C)/C=C/C=C(/C=N/S(=O)(=O)C(F)(F)F)C1C=CN(S(=O)(=O)C(F)(F)F)C=C1 | 75
22 | FC(F)(F)c1ccc2nc(Sc3ccc4ccccc4c3)cnc2c1 | > 100
23 | COc1ccc(-n2cnc3c(NC(Cc4ccccc4)C(=O)O)ncnc32)cc1 (stereo not given) | > 100
24 | CC(=O)OCC1OC(n2c(-c3ccccc3)c(N=Nc3ccc(C)cc3)c(C)c(C#N)c2=S)C(OC(C)=O)C(OC(C)=O)C1OC(C)=O (stereo not given) | > 100
25 | CN1CCC2(CC1)C(=NC1CCCCC1)NC(=O)N2c1ccccc1 | > 100
26 | CC(C)=NOC(=O)Nc1cccc2c1OCO2 | > 100
27 | Cc1ccc(/C=C2/N=C(N/N=C\c3ccccc3)NC2=O)cc1 | > 100
28 | O=C(Nc1ccc(Cl)cc1)c1cc(S(=O)(=O)Nc2n[nH]c(=O)n2-c2ccccc2)c(S)cc1Cl | > 100

These compounds were tested on U251 CNS (assay: NCI-60 cell line screen, 48 h).

Row | Compound | TGI [µM]
29 | O=C1CC(c2ccccc2)S(=O)c2ccccc2N1 (stereo not given) | > 100
30 | CC1(C)CC(=O)C2=C(C1)OC1(CC2c2ccc(Cl)cc2)CC(c2ccc(Cl)cc2)C2=C(CC(C)(C)CC2=O)O1 (stereo not given) | > 57.6
31 | O=C(O)c1ccc(N/C(=C(/C(Cl)=C(Cl)Cl)[N+](=O)[O-])n2nnc3ccccc32)cc1 | > 100
32 | O=c1c2ccccc2nc(-c2ccccc2)n1NC(=S)Nc1cccc(Cl)c1 | > 100
33 | CCn1c2ccccc2c2cc(Nc3cc(C)[nH]c(=O)n3)ccc21 | > 100
34 | C(#Cc1ccccc1)SC1=C(c2ccccc2)S/C(=C(\SC#Cc2ccccc2)c2ccccc2)S1 | > 100
35 | COC(=O)c1cc(/C=C\c2cc(OC)ccc2OC)ccc1OC | > 100
36 | CCOC(=O)C(C(=O)COC(C)(C)C)[C@@H]1C=C[C@H](OC(C)=O)C1 (stereo not given in full) | > 100
37 | CCOC(=O)CC(NC(=O)c1ccc(N=NN(C)C)cc1)C(=O)OCC (stereo not given) | > 100
38 | CN(C)CN(C)c1nc(N(C)C)nc(N(C)CN(C)C)n1 | > 100
39 | O=C(Cc1ccccc1)NN1C(=O)/C(=C\c2ccccc2O)SC1=Nc1ccccc1 | > 100
40 | COc1ccc2c(c1)CCC/C2=N\NS(=O)(=O)c1c(C)cc(C)cc1C | > 100
41 | CSCCCNC(=O)[C@H](CSC)NC(=O)c1csc(CCNC(=O)[C@@H](NSc2ccccc2[N+](=O)[O-])C(C)O)n1 (stereo not given in full) | > 100
42 | CN(C)/C=C/C=C(/C=N/S(=O)(=O)C(F)(F)F)C1C=CN(S(=O)(=O)C(F)(F)F)C=C1 | > 100
43 | Cc1ccc(S(=O)(=O)Nn2c(O)c(C#N)c(-c3ccc([N+](=O)[O-])cc3)c(C#N)c2=O)cc1 | > 100
44 | CC(C)[Si](OCC1CC(C#N)OC(C)(C)O1)(C(C)C)C(C)C (stereo not given) | 30
45 | CC(=O)Nc1ccc(-c2nnc(SCC(=O)Nc3ccc(Cl)cc3)o2)cc1 | 12.9
46 | Cc1ccccc1NC(=O)Cc1csc(N=Nc2c(O)[nH]c3ccccc23)n1 | > 1
47 | FC(F)(F)c1ccc2nc(Sc3ccc4ccccc4c3)cnc2c1 | > 100
48 | COc1ccc2c([nH]c3c(O)c(-c4c(C)cc5c([nH]c6c(CC=C(C)C)c(OC)ccc65)c4O)c(C)cc32)c1CC=C(C)C | > 100
49 | COc1ccc(-n2cnc3c(NC(Cc4ccccc4)C(=O)O)ncnc32)cc1 (stereo not given) | > 100
50 | CC(=O)OCC1OC(n2c(-c3ccccc3)c(N=Nc3ccc(C)cc3)c(C)c(C#N)c2=S)C(OC(C)=O)C(OC(C)=O)C1OC(C)=O (stereo not given) | 33.4
51 | CN1CCC2(CC1)C(=NC1CCCCC1)NC(=O)N2c1ccccc1 | > 100
52 | CC(C)=NOC(=O)Nc1cccc2c1OCO2 | > 100
53 | Cc1ccc(/C=C2/N=C(N/N=C\c3ccccc3)NC2=O)cc1 | 89.6
54 | O=C(Nc1ccc(Cl)cc1)c1cc(S(=O)(=O)Nc2n[nH]c(=O)n2-c2ccccc2)c(S)cc1Cl | > 100
55 | Cc1csc(-n2c(C)nc3cc(Cl)ccc3c2=O)n1 | > 100
